One may read the inhibition as the change of the read-out against control, counted positive when it falls.

Here are results for one compound from PMC6934184, “Selective DNA-PKcs inhibition extends the therapeutic index of localized radiotherapy and chemotherapy” (The Journal of Clinical Investigation, 2019).

The assay has as its target T1, MET M1250T (Homo sapiens, UniProt P08581, M1250T).
T1 construct: purchased Thermo Fisher Scientific (Life Technologies) SelectScreen
Put plainly: SelectScreen Z'LYTE. The assay is classed as biochemical. Put shortly:
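Percent values come from Thermo SelectScreen profiling of NU5455, combining activity and binding assays. CSF1R was run in Z'LYTE format at Km app ATP, and CAMK1 in Adapta format with ATP listed at 10.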

T1 sequence (P08581 25-1390 M1250T): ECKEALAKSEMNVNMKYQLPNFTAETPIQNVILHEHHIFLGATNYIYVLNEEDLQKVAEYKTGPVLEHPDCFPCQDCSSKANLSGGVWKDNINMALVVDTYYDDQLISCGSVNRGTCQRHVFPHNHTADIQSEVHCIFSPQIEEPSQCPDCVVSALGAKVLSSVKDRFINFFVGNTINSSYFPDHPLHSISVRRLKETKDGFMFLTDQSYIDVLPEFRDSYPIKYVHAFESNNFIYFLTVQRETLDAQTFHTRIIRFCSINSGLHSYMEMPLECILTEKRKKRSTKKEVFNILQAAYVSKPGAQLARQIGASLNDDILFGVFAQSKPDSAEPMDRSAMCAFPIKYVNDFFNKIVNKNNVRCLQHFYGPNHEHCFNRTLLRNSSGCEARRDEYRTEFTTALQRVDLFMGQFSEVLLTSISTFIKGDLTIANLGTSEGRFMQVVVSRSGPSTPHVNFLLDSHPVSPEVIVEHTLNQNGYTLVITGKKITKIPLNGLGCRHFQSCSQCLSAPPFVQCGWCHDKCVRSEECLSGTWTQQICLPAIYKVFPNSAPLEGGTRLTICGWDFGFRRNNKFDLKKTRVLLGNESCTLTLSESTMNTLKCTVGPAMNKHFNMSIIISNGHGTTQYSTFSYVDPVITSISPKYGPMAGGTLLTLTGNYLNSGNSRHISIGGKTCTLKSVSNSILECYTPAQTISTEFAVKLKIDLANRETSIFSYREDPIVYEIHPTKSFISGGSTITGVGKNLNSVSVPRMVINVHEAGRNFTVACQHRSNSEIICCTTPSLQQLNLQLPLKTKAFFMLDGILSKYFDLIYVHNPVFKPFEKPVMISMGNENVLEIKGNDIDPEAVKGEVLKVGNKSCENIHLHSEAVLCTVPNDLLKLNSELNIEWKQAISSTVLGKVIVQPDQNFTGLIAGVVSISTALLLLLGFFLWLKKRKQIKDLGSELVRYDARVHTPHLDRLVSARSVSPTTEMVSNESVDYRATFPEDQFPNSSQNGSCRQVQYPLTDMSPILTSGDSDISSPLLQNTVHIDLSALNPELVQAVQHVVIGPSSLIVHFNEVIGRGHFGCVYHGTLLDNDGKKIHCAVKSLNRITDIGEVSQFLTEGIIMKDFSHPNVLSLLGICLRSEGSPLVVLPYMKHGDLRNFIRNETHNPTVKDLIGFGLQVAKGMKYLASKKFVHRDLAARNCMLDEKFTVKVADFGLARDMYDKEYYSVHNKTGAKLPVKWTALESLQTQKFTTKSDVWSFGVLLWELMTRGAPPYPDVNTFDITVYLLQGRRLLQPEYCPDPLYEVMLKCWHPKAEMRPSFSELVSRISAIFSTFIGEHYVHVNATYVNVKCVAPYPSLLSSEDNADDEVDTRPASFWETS

Take `CN(C(=O)CN1CCOCC1)c1ccc2sc3c(-c4cccc5c(=O)cc(N6CC7CCC(C6)O7)oc45)cccc3c2c1` [NU5455]: the inhibition at 1 µM is -14.5%.
